Assay results taken from patent US8486996B2, “Aroylfuranes and aroylthiophenes” (Basilea Pharmaceutica AG, priority 2006, dated 2013).
Like-named read-outs stand apart in the source and are kept apart here.

Experiments:
Type in all cases: cell-based
[1] = Hoechst 33342 nuclear staining (48 h read-out)
Summary of the method: (§1)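 Adherent cells pre-spread 24 h before dosing, suspension cells dosed at seeding; compounds at 0.001 μM-10 μM final, 48 h at culture conditions. Hoechst 33342 (2-5 μg/ml) added for 30 min, then fluorescence microscopy scoring of apoptotic nuclear fraction and apoptosis-specific morphology, reported as scores A-D.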

tumor cells [2] = assay: Hoechst 33342 nuclear staining (48 h read-out)
Summary of the method: as §1

[3] = MTS proliferation assay (72 h read-out); details: MRC5 cells
Summary of the method: (§2)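 Viability was read by MTS absorbance at 492 nm after 3 h with reagent. Before that, cells plated a day earlier at 1.5×10^3–10^4 per well had been incubated with test compound at final concentrations of 0.001–10 μM for 72 h; activity is given as category scores A–D.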

tumor cells [4] = assay: MTS proliferation assay (72 h read-out)
Summary of the method: as §2

[5] = Mitochondrial membrane potential, JC-1 (read-out 48 h); details: PBL, JC-1, 48 h
Summary of the method: (§3)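 Tumor cells were treated with test compounds (adherent cells after 24 h of attachment, suspension cells immediately), medium holding up to 5% DMSO. After 48 h, JC-1 (2-5 μg/ml in added medium) was applied for 30 min. Fluorescence microscopy (FITC/TRITC filters) scored the fraction of cells with dissipated mitochondrial membrane potential as categories A-D.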

tumor cells [6] = assay: as above; details: JC-1, 48 h
Summary of the method: as §3

[7] = MRC5 cells, read-out: Hoechst 33342 nuclear staining EC50, MRC5
[8] = PBL, read-out: Hoechst 33342 nuclear staining EC50, PBL
[9] = HeLa cells, read-out: Hoechst 33342 nuclear staining EC50, HeLa
[10] = Jily cells, read-out: Hoechst 33342 nuclear staining EC50, Jily
[11] = Jurkat cells, read-out: Hoechst 33342 nuclear staining EC50, Jurkat
[12] = HT1080 cells, read-out: MTS proliferation assay IC50, HT1080
[13] = HeLa cells, read-out: MTS proliferation assay IC50, HeLa
[14] = Jily cells, read-out: MTS proliferation assay IC50, Jily
[15] = HeLa cells, read-out: Mitochondrial membrane potential (read-out 48 h) HeLa
[16] = Jily cells, read-out: Mitochondrial membrane potential (read-out 48 h) Jily
[17] = Jurkat cells, read-out: Mitochondrial membrane potential (read-out 48 h) Jurkat
[18] = MCF7 cells, read-out: Mitochondrial membrane potential (read-out 48 h) MCF7
[19] = Jurkat cells, read-out: MTS proliferation assay IC50, Jurkat

| Structure (SMILES) | EC50 [1, 7] [nM] | EC50 [1, 8] [nM] | EC50 (tumor cells [2]; [9]) [nM] | EC50 (tumor cells [2]; [10]) [nM] | EC50 (tumor cells [2]; [11]) [nM] | IC50 [3] [nM] | IC50 (tumor cells [4]; [12]) [nM] | IC50 (tumor cells [4]; [13]) [nM] | IC50 (tumor cells [4]; [14]) [nM] | EC50 [5] [nM] | EC50 (tumor cells [6]; [15]) [nM] | EC50 (tumor cells [6]; [16]) [nM] | EC50 (tumor cells [6]; [17]) [nM] | EC50 (tumor cells [6]; [18]) [nM] | IC50 (tumor cells [4]; [19]) [nM] |
| --- | --- | --- | --- | --- | --- | --- | --- | --- | --- | --- | --- | --- | --- | --- | --- |
| CCOc1ccccc1C(=O)c1oc2ccc(NC(=O)OC(C)(C)C)cc2c1N [Example 51] | > 1000 | > 1000 | > 1000 | > 1000 | > 1000 | > 1000 | > 1000 | > 1000 | > 1000 | > 1000 | > 1000 | > 1000 | > 1000 | > 1000 |  |
| CCOc1ccccc1C(=O)c1oc2ccc(N)cc2c1N [Example 52] | > 1000 | > 1000 | > 1000 | 100 to 1000 | 100 to 1000 | > 1000 | > 1000 | > 1000 | 100 to 1000 | > 1000 | > 1000 | 100 to 1000 | 100 to 1000 | > 1000 |  |
| CCOc1ccc(F)cc1C(=O)c1oc2ccc(OC)cc2c1NS(C)(=O)=O [Example 54] | 100 to 1000 | > 1000 | 100 to 1000 | 10 to 100 | 10 to 100 | 10 to 100 | 10 to 100 | 10 to 100 | 10 to 100 | > 1000 | 100 to 1000 | 100 to 1000 | 10 to 100 | 10 to 100 |  |
| CCOc1ccccc1C(=O)c1oc2ccccc2c1N [Example 55] | > 1000 | > 1000 | > 1000 | 100 to 1000 | 100 to 1000 | 100 to 1000 | 100 to 1000 | 100 to 1000 | 10 to 100 | > 1000 | > 1000 | 10 to 100 | 100 to 1000 | 100 to 1000 | 10 to 100 |
| CCOc1ccc(F)cc1C(=O)c1oc2ccccc2c1N [Example 56] | > 1000 | > 1000 | 100 to 1000 | 10 to 100 | 10 to 100 | 10 to 100 | 10 to 100 | 10 to 100 | < 10 | > 1000 | 100 to 1000 | 100 to 1000 | 10 to 100 | 100 to 1000 | < 10 |
| CCOc1ccc(F)cc1C(=O)c1cc2cc(COC)ccc2o1 [Example 57] | 100 to 1000 | > 1000 | 10 to 100 | 10 to 100 | 10 to 100 | 10 to 100 | 10 to 100 | 10 to 100 | < 10 | > 1000 | 100 to 1000 | 10 to 100 | 10 to 100 | 100 to 1000 | < 10 |
| CCOc1ccccc1C(=O)c1oc2ccc([N+](=O)[O-])cc2c1N [Example 59] | > 1000 | > 1000 | 100 to 1000 | 100 to 1000 | 10 to 100 | 100 to 1000 | 10 to 100 | 100 to 1000 | 10 to 100 | > 1000 | > 1000 | 100 to 1000 | 10 to 100 | > 1000 | 10 to 100 |
| COc1ccc2oc(C(=O)c3ccccc3OCC(F)(F)F)c(N)c2c1 [Example 60] | > 1000 | > 1000 | 100 to 1000 | 10 to 100 | 10 to 100 | 100 to 1000 | 10 to 100 | 100 to 1000 | 10 to 100 | > 1000 | 100 to 1000 | 10 to 100 | 10 to 100 | > 1000 | 10 to 100 |
| CCOc1ccc(F)cc1C(=O)c1oc2ccc(C)cc2c1N [Example 62] | > 1000 | > 1000 | 10 to 100 | < 10 | < 10 | < 10 | < 10 | 10 to 100 | < 10 | > 1000 | 10 to 100 | < 10 | < 10 | > 1000 | < 10 |
| CCOc1ccc(F)cc1C(=O)c1cc2cc(OCc3ccccc3)ccc2o1 [Example 63] | > 1000 | > 1000 | > 1000 | > 1000 | > 1000 | > 1000 | > 1000 | > 1000 | > 1000 | > 1000 | > 1000 | > 1000 | > 1000 | > 1000 | > 1000 |
| CCOc1ccc(F)cc1C(=O)c1cc2cc(OC(C)=O)ccc2o1 [Example 65] | 100 to 1000 | > 1000 | 10 to 100 | 10 to 100 | < 10 | < 10 | < 10 | 10 to 100 | < 10 | > 1000 | 10 to 100 | 10 to 100 | < 10 | > 1000 | < 10 |
| C=CCOc1ccc2oc(C(=O)c3cc(F)ccc3OCC)cc2c1 [Example 67] | > 1000 | > 1000 | 100 to 1000 | 10 to 100 | 10 to 100 | 10 to 100 | 100 to 1000 | 10 to 100 | < 10 | > 1000 | 100 to 1000 | 10 to 100 | 10 to 100 | > 1000 |  |
| CCOc1ccc(F)cc1C(=O)c1cc2cc(OC(C)C)ccc2o1 [Example 68] | 100 to 1000 | > 1000 | 100 to 1000 | 100 to 1000 | 100 to 1000 | 10 to 100 | 10 to 100 | 10 to 100 | 10 to 100 | > 1000 | > 1000 | 100 to 1000 | 100 to 1000 | > 1000 |  |
